# Active and inactive are the calls of the source. The calls are words filed in the database; no cut-off is given here.
# Key:
# Huh-7 = assay: Cytotoxicity against human Huh-7 cells assessed as cell viability measured after 48 hrs by MTT assay; assay type: functional, cell-based; settings: Huh-7, 48 h
# A2780 [1] = assay: Induction of apoptosis in human A2780 cells assessed as increase in cleaved PARP level measured after 12 to 48 hrs by Western blot analysis; assay type: functional, cell-based; settings: dose 5-20 nM, time 12-48 hrs
# A2780 [2] = assay: Induction of apoptosis in human A2780 cells assessed as increase in cleaved caspase 3 level measured after 12 to 48 hrs by Western blot analysis; assay type: functional, cell-based; settings: dose 5-20 nM, time 12-48 hrs
# A2780 [3] = assay: Induction of apoptosis in human A2780 cells assessed as increase in cleaved PARP level measured at 5 to 20 nM by Western blot analysis; assay type: functional, cell-based; settings: dose 5-20 nM, time 12-48 hrs, TDE = time-dependent effect
# A2780 [4] = assay: Induction of apoptosis in human A2780 cells assessed as increase in cleaved caspase 3 level measured at 5 to 20 nM by Western blot analysis; assay type: functional, cell-based; settings: dose 5-20 nM, time 12-48 hrs, TDE = time-dependent effect
# A2780 [5] = assay: Inhibition of colony formation in human A2780 cells at 0.25 to 0.5 uM incubated for 24 hrs by EdU staining based assay; assay type: functional, cell-based; settings: dose 0.25-0.5 µM
# [6] = molecular target: MAP kinase p38 (Homo sapiens) (UniProt O15264+Q15759+Q16539+P53778); assay: Activation of p38 in human A2780 cells assessed as increase phosphorylation of p38 at 5 to 20 nM measured after 24 hrs by Western blot analysis; assay type: cell-based; settings: filed as activator, dose 5-20 nM
# A2780 [7] = assay: Induction of apoptosis in human A2780 cells assessed as early apoptotic cells at 800 nM measured after 24 hrs by Annexin V-FITC/PI flow cytometry (reference value: 2.17%); assay type: functional
# A2780 [8] = assay: Induction of p38 expression in human A2780 cells in presence of SB203580 at 5 to 20 nM measured after 24 hrs by Western blot analysis; assay type: functional, cell-based; settings: dose 5-20 nM
# A2780 [9] = assay: Induction of apoptosis in human A2780 cells assessed as late apoptotic cells in presence of bafilomycin A1 at 800 nM measured after 24 hrs by Annexin V-FITC/PI flow cytometry (reference value: 1.58%); assay type: functional
# A2780 [10] = assay: Induction of apoptosis in human A2780 cells assessed as viable cells at 8 nM measured after 24 to 72 hrs by Annexin V-FITC/PI flow cytometry (reference value: 94.2%); assay type: functional; settings: time 24-72 hrs, read-out: Activity
# A2780 [11] = assay: Induction of apoptosis in human A2780 cells assessed as early apoptotic cells at 8 nM measured after 24 to 72 hrs by Annexin V-FITC/PI flow cytometry (reference value: 2.82%); assay type: functional; settings: time 24-72 hrs
# A2780 [12] = assay: Induction of apoptosis in human A2780 cells assessed as late apoptotic cells at 8 nM measured after 24 to 72 hrs by Annexin V-FITC/PI flow cytometry (reference value: 2.54%); assay type: functional; settings: time 24-72 hrs
# A2780 [13] = assay: Cytotoxicity against human A2780 cells assessed as cell viability in presence of p53 SiRNA 2 measured after 48 hrs by MTT assay; assay type: functional, cell-based
# A2780 [14] = assay: Antiproliferative activity against human A2780 cells assessed as number of fluorescent dots in presence of p53 SiRNA 2 at 4 nM measured after 24 hrs by KitkFluor555 Click-iT EdU Kit staining assay; assay type: functional, cell-based
# A2780 [15] = assay: Induction of apoptosis in human A2780 cells assessed as viable cells at 4 nM measured after 24 hrs by Annexin V-FITC/PI flow cytometry (reference value: 94.2%); assay type: functional; settings: read-out: Activity
# A2780 [16] = assay: Induction of apoptosis in human A2780 cells assessed as late apoptotic cells in presence of p53 SiRNA 1 at 4 nM measured after 24 hrs by Annexin V-FITC/PI flow cytometry (reference value: 2.54%); assay type: functional
# A2780 [17] = assay: Induction of apoptosis in human A2780 cells assessed as necrotic cells in presence of p53 SiRNA 1 at 4 nM measured after 24 hrs by Annexin V-FITC/PI flow cytometry (reference value: 0.39%); assay type: functional
# A2780 [18] = assay: Induction of apoptosis in human A2780 cells assessed as viable cells in presence of p53 SiRNA 2 at 4 nM measured after 24 hrs by Annexin V-FITC/PI flow cytometry (reference value: 94.2%); assay type: functional
# A2780 [19] = assay: Induction of apoptosis in human A2780 cells assessed as late apoptotic cells in presence of p53 SiRNA 2 at 4 nM measured after 24 hrs by Annexin V-FITC/PI flow cytometry (reference value: 2.54%); assay type: functional
# A2780 [20] = assay: Reduction in p62 expression in human A2780 cells at 5 to 20 nM measured after 24 hrs by Western blot analysis; assay type: functional, cell-based; settings: dose 5-20 nM
# A2780 [21] = assay: Cytotoxicity against human A2780 cells assessed as cell viability in presence of bafilomycin A1 upto 60 nM measured after 48 hrs by MTT assay; assay type: functional, cell-based
# A2780 [22] = assay: Induction of cell cycle arrest in human A2780 cells assessed as accumulation of cells at G2 phase at 2 nM measured after 24 hrs by PI staining based ell Cycle Analysis Kit (KeyGEN) (reference value: 22.2%); assay type: functional
# A2780 [23] = assay: Induction of cell cycle arrest at S phase in human A2780 cells assessed as increase in cyclin B1 proteins measured after 24 hrs by Western blot analysis; assay type: functional, cell-based; settings: dose 5-20 nM
# A2780 [24] = assay: Induction of cell cycle arrest at S phase in human A2780 cells assessed as increase in CDK2 proteins measured after 24 hrs by Western blot analysis; assay type: functional, cell-based; settings: dose 5-20 nM
# A2780 [25] = assay: Induction of cell cycle arrest in human A2780 cells assessed as accumulation of cells at S phase at 4 nM measured after 24 hrs by PI staining based Cell Cycle Analysis Kit (KeyGEN) (reference value: 15%); assay type: functional
# A2780 [26] = assay: Induction of cell cycle arrest at S phase in human A2780 cells assessed as increase in cyclin E1 proteins in presence of SB203580 measured at 10 nM after 24 hrs by Western blot analysis; assay type: functional, cell-based
# A2780 [27] = assay: Induction of cell cycle arrest at S phase in human A2780 cells assessed as increase in CDK2 proteins in presence of SB203580 measured at 10 nM after 24 hrs by Western blot analysis; assay type: functional, cell-based
# A2780 [28] = assay: In vivo antitumor activity against human A2780 cells subcutaneously inoculated in BALB/c-nu mouse assessed as inhibition of tumor growth at 3 to 5 mg/kg, ip administered every day for 20 days; assay type: functional, organism-based; settings: dose 3-5 mg/kg, time 20.0 day
# A2780 [29] = assay: In vivo antitumor activity against human A2780 cells subcutaneously inoculated in BALB/c-nu mouse assessed as reduction in tumor weight at 3 to 5 mg/kg, ip administered every day for 20 days; assay type: functional, organism-based; settings: dose 3-5 mg/kg, time 20.0 day
# [30] = Toxicity in BALB/c-nu mouse subcutaneously inoculated with human A2780 cells assessed as change in body weight at 3 to 5 mg/kg, ip administered every day for 20 days; assay type: organism-based; settings: in vivo, 480 h, dose 3-5 mg/kg, time 20 day
# [31] = Toxicity in BALB/c-nu mouse subcutaneously inoculated with human A2780 cells assessed as morphological changes of lung at 3 to 5 mg/kg, ip administered every day for 20 days by HE staining analysis; assay type: organism-based; settings: in vivo, sc, 480 h, dose 3-5 mg/kg, time 20 day
structure (smiles),measurement,setting,value
CC(C)[C@]12O[C@H]1[C@@H]1O[C@]13[C@]1(O[C@H]1C[C@H]1C4=C(CC[C@@]13C)C(=O)OC4)[C@@H]2O [TRIPTOLIDE],IC50,Huh-7,74.6 nM
same,Activity,A2780 [1],Dose-Dependent Effect
same,Activity,A2780 [2],Dose-Dependent Effect
same,Activity,A2780 [3],Tde
same,Activity,A2780 [4],Tde
same,inhibition,A2780 [5],Active
same,Activity,[6],Active
same,Activity,A2780 [7],14.7%
same,Activity,A2780 [8],Active
same,Activity,A2780 [9],3.96%
same,viability at 0.008 µM,A2780 [10],55.8%
same,Activity,A2780 [11],18.6%
same,Activity,A2780 [12],20%
same,Activity,A2780 [13],inactive
same,Activity,A2780 [14],inactive
same,viability at 0.004 µM,A2780 [15],33.1%
same,Activity,A2780 [16],14.3%
same,Activity,A2780 [17],8.18%
same,Activity,A2780 [18],66.5%
same,Activity,A2780 [19],14.4%
same,Activity,A2780 [20],Active
same,Activity,A2780 [21],inactive
same,Activity,A2780 [22],15.3%
same,Activity,A2780 [23],Dose-Dependent Effect
same,Activity,A2780 [24],Dose-Dependent Effect
same,Activity,A2780 [25],29.4%
same,Activity,A2780 [26],inactive
same,Activity,A2780 [27],inactive
same,Activity,A2780 [28],Active
same,Activity,A2780 [29],Active
same,Activity,[30],Non-Toxic
same,Activity,[31],Non-Toxic
